Legend:
Format in all cases: physicochemical
[1] = Stability with regard to steam autoclaving: elastic component G′ of crosslinked hyaluronic acid compositions (rheometer)
Method: For the compositions according to the invention comprising crosslinked hyaluronic acid, the elastic component G′ of the sterilized compositions after the autoclaving step is characterized on a TA Instruments AR 2000 Ex rheometer, under oscillation conditions, at 25° C., the values of the elastic component being recorded at a frequency of 1 Hz.
For the compositions comprising crosslinked hyaluronic acid, the percentage of loss in the elastic component G′ is the value of the difference in the elastic component G′ of the reference composition after steam autoclaving and the elastic component G′ of the composition comprising crosslinked hyaluronic acid and a sulphated oligo-polysaccharide or a sulphated monosaccharide after steam autoclaving over the value of the elastic component G′ of the reference composition after steam autoclaving.
(§1) For these all measurements, a reference composition is formulated, the aqueous solution of sulphated oligo-polysaccharide or of sulphated monosaccharide being replaced by the same amount of aqueous solution of phosphate buffer.
A series of four compositions comprising crosslinked hyaluronic acid, mannitol and a sulphated oligo-polysaccharide or a sulphated monosaccharide at a concentration of 1 mg/g in the composition is prepared according to the procedure described in Example 4.
A reference composition is also formulated, the aqueous solution of sulphated oligo-polysaccharide or of sulphated monosaccharide being replaced by an equivalent amount of aqueous solution of phosphate buffer.
Examples of tests on formulations of KSOS (at different concentrations) with a 20 mg/g crosslinked NaHA gel (IPN-like gel, sold under the Stylage® M brand), which is the reference gel.
The gels are sterilized and then characterized.
The percentage of loss in the elastic component G′ with respect to the reference composition is measured according to Example 8 and the difference between the injectability force, through 30-gauge ½ hypodermic needles, of the reference gel and of the gels comprising potassium sucrose octasulphate is measured.
Example of test on formulation of KSOS with a gel comprising crosslinked hyaluronic acid at the concentration and at the ratio described in Table 8 below.
The gels are prepared according to the procedure described in Example 2 and are then characterized by rheology according to Example 8.

[2] = Stability with regard to steam autoclaving: viscosity of non-crosslinked hyaluronic acid compositions (rheometer)
Method: For the compositions according to the invention comprising non-crosslinked hyaluronic acid, the viscosity η of the sterilized compositions after the steam autoclaving step is characterized on a TA Instruments AR 2000 Ex rheometer, under controlled constraint conditions, at 25° C. The viscosity value is recorded at a constraint of 0.02 s^−1.
For the compositions comprising non-crosslinked hyaluronic acid, the percentage of loss in the viscosity is the value of the difference in the viscosity of the reference composition after steam autoclaving and the viscosity of the composition comprising non-crosslinked hyaluronic acid and a sulphated oligo-polysaccharide or a sulphated monosaccharide after steam autoclaving over the value of the viscosity of the reference composition after steam autoclaving.
as §1
Nine compositions comprising non-crosslinked hyaluronic acid and a sulphated oligo-polysaccharide or a sulphated monosaccharide at a concentration of 1 mg/g in the composition are prepared according to the procedure described in Example 1.
A reference composition is also formulated, the aqueous solution of sulphated oligo-polysaccharide or of sulphated monosaccharide being replaced by the same amount of aqueous solution of phosphate buffer.
A series of five compositions comprising non-crosslinked hyaluronic acid, mannitol and a sulphated oligo-polysaccharide or a sulphated monosaccharide at a concentration of 1 mg/g in the composition is prepared according to the procedure described in Example 3.
Examples of tests on formulations of KSOS (at different concentrations) with a non-crosslinked gel of Example 1 at the concentrations and ratios described in Table 7 below.
The gels are sterilized and then characterized by rheology according to Example 8.

[3] = Solubility of salts of sucrose octasulphate
[4] = after steam autoclaving, crosslinked hyaluronic acid + mannitol + sulphated saccharide at 1 mg/g (procedure of Example 4), 25° C., 1 Hz
[5] = after steam autoclaving, non-crosslinked hyaluronic acid + mannitol + sulphated saccharide at 1 mg/g (procedure of Example 3)
[6] = after steam autoclaving, non-crosslinked hyaluronic acid + sulphated saccharide at 1 mg/g (procedure of Example 1), viscosity at 25° C., 0.02 s^−1

Row | % of loss in the elastic component G′ with respect to the reference composition [1, 4] [%] | % of loss in the viscosity with respect to the reference composition [2, 5] [%] | % of loss in the viscosity with respect to the reference composition [2, 6] [%] | Compound | also measured
1 |  |  | 62 | Chondroitin sulphate [reference compound] | 
2 |  |  | 92 | Hexasulphated carrageenan(hexasaccharide) [reference compound] | 
3 |  |  | 16 | Dextran sulphate(40000) [reference compound] | 
4 |  |  | 94 | Disulphated carrageenan(disaccharide) [reference compound] | 

Second part, the compound before the results:

Row | Compound | % of loss in the elastic component G′ with respect to the reference composition [1, 4] [%] | % of loss in the viscosity with respect to the reference composition [2, 5] [%] | % of loss in the viscosity with respect to the reference composition [2, 6] [%] | also measured
5 | N[C@H]1C(O)O[C@H](COS(=O)(=O)O)[C@@H](O)[C@@H]1O (stereo partly drawn) [D-Glucosamine-6-sulphate, reference compound] | 74 | 90 | 98 | 
6 | Potassium sucrose octasulphate | 0 | 0 | 0 | maximum solubility [3]: 40 mg/g; % of loss in the elastic component G′ with respect to the reference composition ([1]; after autoclaving, crosslinked NaHA 10.3 mg/g, KSOS 25 mg/g, [HA]/[SOS] 0.4 (procedure of Example 2)): 0%; % of loss in the elastic component G′ with respect to the reference composition ([1]; after steam autoclaving, crosslinked hyaluronic acid + mannitol + sulphated saccharide at 1 mg/g (procedure of Example 4), 25° C., 1 Hz, listed as potassium sucrose octasulphate): no loss; % of loss in the viscosity with respect to the reference composition ([2]; after autoclaving, non-crosslinked NaHA 4 mg/g, KSOS 40 mg/g, [HA]/[SOS] 0.1): 0%; % of loss in the viscosity with respect to the reference composition ([2]; after autoclaving, non-crosslinked NaHA 10 mg/g, KSOS 10 mg/g, [HA]/[SOS] 1): 0%; % of loss in the viscosity with respect to the reference composition ([2]; after autoclaving, non-crosslinked NaHA 10 mg/g, KSOS 20 mg/g, [HA]/[SOS] 0.5): 0%; % of loss in the viscosity with respect to the reference composition ([2]; after autoclaving, non-crosslinked NaHA 20 mg/g, KSOS 10 mg/g, [HA]/[SOS] 2): 0%; % of loss in the viscosity with respect to the reference composition ([2]; after autoclaving, non-crosslinked NaHA 20 mg/g, KSOS 20 mg/g, [HA]/[SOS] 1): 0%; % of loss in the viscosity with respect to the reference composition ([2]; after autoclaving, non-crosslinked NaHA 25 mg/g, KSOS 0.01 mg/g, [HA]/[SOS] 2500): 0%; % of loss in the viscosity with respect to the reference composition ([2]; after autoclaving, non-crosslinked NaHA 25 mg/g, KSOS 0.05 mg/g, [HA]/[SOS] 500): 0%
7 | O=S(=O)(O)N[C@H]1C(O)O[C@H](CO)[C@@H](O)[C@@H]1O (stereo partly drawn) [D-Glucosamine-2-sulphate, reference compound] | 18 | 25 | 87 | 
8 | O=S(=O)([O-])OC[C@H]1O[C@@](COS(=O)(=O)[O-])(O[C@H]2O[C@H](COS(=O)(=O)[O-])[C@@H](OS(=O)(=O)[O-])[C@H](OS(=O)(=O)[O-])[C@H]2OS(=O)(=O)[O-])[C@@H](OS(=O)(=O)[O-])[C@@H]1OS(=O)(=O)[O-].[Na+].[Na+].[Na+].[Na+].[Na+].[Na+].[Na+].[Na+] [Sodium sucrose octasulphate] |  | 0 | 0 | solubility compared with the potassium salt [3]: greater than that of the potassium salt
9 | CC(=O)N[C@H]1C(O)O[C@H](COS(=O)(=O)O)[C@@H](O)[C@@H]1O (stereo partly drawn) [N-Acetyl-D-glucosamine-6-sulphate, reference compound] | 32 | 60 | 96 | 
